SMILES strings stand for the structures.

The term IC50 denotes the concentration at which inhibition is half-maximal. For orientation: Cmax means the highest concentration seen after dosing. Usually Tmax stands for the time at which the peak concentration occurs.

The target of one series is T1, Ret (V804M) (Homo sapiens, UniProt P07949, V804M).
T1 construct: purchased
The series is described as follows: Inhibition of RET-related mutant enzyme activity (ELISA). In kind it is biochemical. The note with it: measured twice, Mean ± SD. Here is the method:
Enzyme reaction substrate Poly(Glu, Tyr)4:1 was diluted with potassium-free PBS (10 mM sodium phosphate buffer, 150 mM NaCl, pH 7.2-7.4) to 20 μg/mL. The enzyme label plate was coated with 125 μL/well. The reaction was conducted under 37° C. for 12-16 hours. After the liquid was removed from the wells, the plate was washed three times with 200 μL/well of T-PBS (PBS containing 0.1% Tween-20), each for 5 minutes. The enzyme plate was dried in 37° C. dryer for 1-2 hours.
50 μL ATP solution diluted with buffer (50 mM HEPES pH 7.4, 50 mM MgCl2, 0.5 mM MnCl2, 0.2 mM Na3VO4, 1 mM DTT) to a final concentration of 5 μM was added into each well. The compound was diluted with DMSO to a suitable concentration (1 μL/well) or the well contained the corresponding concentration of DMSO (negative control well) Then various kinase recombinant proteins diluted with 49 μL of reaction buffer was added to initiate the reaction. Each experiment required duplicate enzyme-free control well. The reaction was carried out for 1 hour on a 37° C. Shaker (100 rpm). […] The reaction was quenched with 2M H2SO4 (50 μL/well), and read at 490 nm using a tunable microplate reader SPECTRA MAX 190.
The inhibition ratio of the sample was determined by the following formula: […]
The IC50 values were obtained via four-parameter regression analysis using the software supplied with the microplate reader. […]
On the technique in general: An ELISA detects its analyte on a solid surface through an enzyme-linked reagent.

Series [1] is described as follows: Pharmacokinetic experiment in rat (IV and PO, plasma LC-MS/MS). The note with it: SD rats. Here is the method:
Ponatinib (AP24534) was administered intravenously (IV) and orally (PO) to SD rats. Blood samples were taken at different time points. LC-MS/MS was used to determine the concentration of compound in the plasma of rats after administration of the test compound, and the relevant pharmacokinetic parameters were calculated to examine oral bioavailability and pharmacokinetic properties of the compound in rats.
Compound HuFGFR267 was administered intravenously and orally to SD rats. Blood samples were taken at different time points. LC-MS/MS was used to determine the concentration of compound in the plasma of rats after administration of the test compound, and the relevant pharmacokinetic parameters were calculated to examine oral bioavailability and pharmacokinetic properties of the compound in rats.

T1 sequence (P07949 29-1114 V804M): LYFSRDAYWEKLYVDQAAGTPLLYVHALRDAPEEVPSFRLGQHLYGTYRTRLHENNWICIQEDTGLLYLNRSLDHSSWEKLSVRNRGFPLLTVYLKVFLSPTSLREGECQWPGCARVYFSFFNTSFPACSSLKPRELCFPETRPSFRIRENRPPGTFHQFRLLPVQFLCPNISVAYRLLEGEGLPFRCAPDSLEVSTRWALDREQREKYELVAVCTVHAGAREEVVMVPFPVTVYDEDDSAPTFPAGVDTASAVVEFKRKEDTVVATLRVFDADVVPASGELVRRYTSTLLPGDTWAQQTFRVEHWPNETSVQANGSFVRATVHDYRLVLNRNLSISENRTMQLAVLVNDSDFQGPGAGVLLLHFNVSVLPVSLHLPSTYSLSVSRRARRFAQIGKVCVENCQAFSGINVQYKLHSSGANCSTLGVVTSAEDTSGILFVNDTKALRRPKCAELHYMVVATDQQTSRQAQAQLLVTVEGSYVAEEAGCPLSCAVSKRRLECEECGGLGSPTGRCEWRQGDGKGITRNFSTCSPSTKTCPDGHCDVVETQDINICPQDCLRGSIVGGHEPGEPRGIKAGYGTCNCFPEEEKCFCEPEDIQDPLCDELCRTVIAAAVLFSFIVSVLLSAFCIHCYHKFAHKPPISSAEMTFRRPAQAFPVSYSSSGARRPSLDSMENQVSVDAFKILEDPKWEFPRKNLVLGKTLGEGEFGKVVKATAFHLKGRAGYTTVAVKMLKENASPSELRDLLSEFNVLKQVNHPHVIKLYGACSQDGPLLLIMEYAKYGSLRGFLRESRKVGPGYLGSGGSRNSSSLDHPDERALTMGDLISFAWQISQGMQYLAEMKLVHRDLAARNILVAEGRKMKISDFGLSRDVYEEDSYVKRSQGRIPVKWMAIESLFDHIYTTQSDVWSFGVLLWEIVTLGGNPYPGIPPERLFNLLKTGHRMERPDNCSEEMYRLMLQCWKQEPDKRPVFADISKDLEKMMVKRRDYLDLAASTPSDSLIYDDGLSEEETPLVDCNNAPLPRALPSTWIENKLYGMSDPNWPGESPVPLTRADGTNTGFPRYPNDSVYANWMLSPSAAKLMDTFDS

On to `CN1CCN(Cc2ccc(NC(=O)c3ccc(Cl)c(C#Cc4cccnc4N)c3)cc2C(F)(F)F)CC1` [Example 1, 3-(2-aminopyridine-3-ethynyl)-4-chloro-N-(4-((4-methylpiperazin-1-yl)methylene)-3-(trifluoromethyl)phenyl)benzamide], for which, at Ret (V804M), the concentration for half-maximal inhibition (IC50) amounted to 8.4 ± 1.7 nM. In series [1] (IV (2 mg/kg)), the “AUC0-t” value came to 2720 ng·h/mL, the “CLplasma” value was 11.9 mL/min/kg, the “T1/2” value is listed as 6.00 h and the “Vdss” value is listed as 4.88 L/kg. Moreover, in series [1] (PO (10 mg/kg)), the “AUC0-t” value stood at 4961 ng·h/mL, the “Cmax” value is reported as 346 ng/mL, the “T1/2” value stood at 10.5 h and the “Tmax” value is given as 5.33 h. In series [1] (PO (10 mg/kg) vs IV (2 mg/kg)), this compound had an F of 36.5%.

The record behind these values is patent US10988456B2, “O-aminoheteroaryl alkynyl-containing compound, preparation method therefor, and use thereof” (SHANGHAI INSTITUTE OF MATERIA MEDICA, CHINESE ACADEMY OF …, priority 2017, dated 2021).
